This is an account of results in patent US20250049932A1, “CYTOTOXICITY TARGETING CHIMERAS FOR FOLATE RECEPTOR-EXPRESSING CELLS” (GLAXOSMITHKLINE INTELLECTUAL PROPERTY DEVELOPMENT LIMITED, priority 2022, published 2025).

Where “and” joins values, the source holds several entries; their conditions need not be identical. Equal values may be shown once.

The assay concerns the target T1, FOLR (Homo sapiens, UniProt P15328).
T1 construct: Target cells: IGROV1 cells (typically 1000-20,000 cells per well); endogenous in cells; host or cells: IGROV1 cells
As to the kind of experiment: Antibody dependent cellular cytotoxicity (ADCC) reporter assay. The format is cell-based. Particulars: IGROV1 target cells; anti-cotinine antibody (SEQ ID NO: 11/12, human IgG1 Fc S239D/I332E); Jurkat FcγRIIIa NFAT-luciferase reporter cells; about 12-18 hours; one value per experimental run; EC50 in molar (M); footnote: pEC50 < 5 = inactive. The procedure:
An antibody dependent cellular cytotoxicity (ADCC) reporter assay was conducted using the following four assay components: (i) ARM compound of Formula (I) targeting FOLR (concentrations ranging from 1 pM to 10 μM); (ii) anti-cotinine antibody having a heavy chain sequence of SEQ ID NO: 11 and a light chain sequence of SEQ ID NO: 12 (rabbit variable region with human IgG1 Fc domain containing DE mutation (S239D/I332E)) (concentrations ranging from 0.01 μg/mL-200 μg/mL); (iii) Target cells: IGROV1 cells (typically 1000-20,000 cells per well); and (iv) Reporter cells—Jurkat cells engineered to express FcγRIIIa with a reporter gene luciferase under the control of the NFAT promoter (typically 3000-75,000 cells per well). Reagents were combined in final volume of 20 μL in 384-well tissue culture treated plate. […]
Luminescence signal was measured on a microplate reader capable of measuring luminescence and signal: background was calculated by dividing the signal of a test well by the signal obtained when no compound of formula (I) was included in the assay. […]
ARMs compounds of Formula (I) were tested for ADCC activity in the above assay in one or more experimental runs and the results are shown in Table 3 below. […] The pEC50 value is the negative log of the EC50 value, wherein the EC50 value is half maximal effective concentration measured in molar (M). […]
Background: A reporter such as luciferase makes a cellular process visible.

T1 sequence (P15328 25-234 limits assumed): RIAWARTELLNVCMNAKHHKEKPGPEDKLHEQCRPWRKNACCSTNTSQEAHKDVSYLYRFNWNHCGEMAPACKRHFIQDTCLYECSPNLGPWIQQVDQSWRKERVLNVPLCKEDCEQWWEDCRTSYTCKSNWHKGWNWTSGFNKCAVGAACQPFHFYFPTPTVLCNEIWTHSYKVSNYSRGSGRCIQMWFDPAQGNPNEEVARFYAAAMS

Consider `CN1C(=O)C[C@H](C(=O)NCCNC(=O)CC[C@H](NC(=O)c2ccc(NCc3cnc4nc(N)[nH]c(=O)c4n3)cc2)C(=O)O)[C@H]1c1cccnc1` [Example 1, N2-(4-(((2-Amino-4-oxo-3,4-dihydropteridin-6-yl)methyl)amino)benzoyl)-N5-(2-((2S,3S)-1-methyl-5-oxo-2-(pyridin-3-yl)pyrrolidine-3-carboxamido)ethyl)-L-glutamine], for which the “ADCC Reporter Assay pEC50” value was 4.5 and 4.8.
The term EC50 denotes the concentration at which the effect is half-maximal. A low value points to greater potency. As to `CN1C(=O)C[C@H](C(=O)NCCO[C@H]2CC[C@H](OCCCC(=O)N[C@H]3CC[C@H](C(=O)NCCNC(=O)CC[C@H](NC(=O)c4ccc(NCc5cnc6nc(N)[nH]c(=O)c6n5)cc4)C(=O)O)CC3)CC2)[C@H]1c1cccnc1` (racemic) [Example 2, N2-(4-(((2-Amino-4-oxo-3,4-dihydropteridin-6-yl)methyl)amino)benzoyl)-N5-(2-((1R,4S)-4-(4-(((1S,4R)-4-(2-((2S,3S)-1-methyl-5-oxo-2-(pyridin-3-yl)pyrrolidine-3-carboxamido)-ethoxy)cyclohexyl)oxy)butanamido)cyclohexane-1-carboxamido)ethyl)-L-glutamine], the EC50 was 6.31e-08 M and 7.94e-08 M.
